Assay results as given in patent US9914722B2, “Compounds for treating spinal muscular atrophy” (PTC Therapeutics Inc., priority 2012, dated 2018).

Assays:
[1] = test system: full length SMN2 minigene mRNA containing SMN2 exon 7 (SMN2-A minigene); assay: SMN2 minigene mRNA splicing RT-qPCR assay in cultured cells; format: cell-based, human; conditions: Homo sapiens, HEK293-H; HEK293H cells stably transfected with SMN2-A minigene, 24 hours, 7-point concentration curve; concentration giving 1.5-fold SMN2 full length mRNA vs vehicle; read-out: EC1.5x for production of full length SMN2 mRNA
Summary of the method: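 HEK293H cells stably carrying the SMN2-A minigene were treated 24 h at 37 °C with a 7-point, 3.16-fold test compound series, in duplicate. Multiplex RT-qPCR measured exon 7-containing minigene FL mRNA, normalized to GAPDH and expressed relative to vehicle; EC1.5x is the concentration giving 1.5-fold FL mRNA.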

Smn protein = Smn protein assay (Smn HTRF) in cultured cells; format: cell-based, human; conditions: Homo sapiens, Fibroblast, GM03813 SMA Type 1 patient fibroblasts, 48 hours, HTRF; for maximal fold induction: 7-point concentration data, relative to vehicle, read-out: maximum fold (Fold) increase of Smn protein; for EC (1.5-fold): concentration producing 1.5 times Smn protein vs DMSO vehicle, read-out: EC1.5x for Smn protein expression
Summary of the method: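 SMA patient fibroblasts (5,000/well) were exposed to a 7-point, 3.16-fold compound dilution series for 48 hours at 37° C, in triplicate. Lysates were read by HTRF with anti-SMN d2/kryptate at 665/620 nm. Blank-corrected signal was expressed as fold over DMSO vehicle, giving the EC1.5x and the maximum fold increase.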

Row | Structure (SMILES) | EC (1.5-fold) [1] [µM] | melting point [°C] | maximal fold induction (Smn protein) | EC (1.5-fold) (Smn protein) [µM]
1 | COc1cc(F)c(-c2cc(=O)c3cc(N4CCNCC4)ccc3o2)cc1OC [Cpd 45, 2-(2-fluoro-4,5-dimethoxyphenyl)-6-(piperazin-1-yl)-4H-chromen-4-one] | 1 to 3 | 130 to 132 | 1.2 to 1.35 | 
2 | CN1CCN(c2ccc3oc(-c4nc5ccccc5s4)cc(=O)c3c2)CC1 [Cpd 35, 2-(1,3-benzothiazol-2-yl)-6-(4-methylpiperazin-1-yl)-4H-chromen-4-one] | 1 to 3 | 215 to 220 | 1.2 to 1.35 | 
3 | CC1(C)CN(c2ccc3oc(-c4cccnc4)cc(=O)c3c2)CCN1 [Cpd 10, 6-(3,3-dimethylpiperazin-1-yl)-2-(pyridin-3-yl)-4H-chromen-4-one] | 1 to 3 | 140 to 142 | 1.35 to 1.5 | 
4 | COc1cc(F)c(-c2cc(=O)c3cc(N4CCN[C@@H](C)C4)ccc3o2)cc1OC [Cpd 46, 2-(2-fluoro-4,5-dimethoxyphenyl)-6-[(3S)-3-methylpiperazin-1-yl]-4H-chromen-4-one] | 0.3 to 1 | 179 to 181 | 1.5 to 1.65 | 1 to 3
5 | COc1ccc(-c2cc(=O)c3cc(N4CCNCC4)ccc3o2)cc1OC [Cpd 20, 2-(3,4-dimethoxyphenyl)-6-(piperazin-1-yl)-4H-chromen-4-one] | ≤ 0.1 | 177 to 179 | > 1.65 | 0.3 to 1
6 | C[C@@H]1CN(c2ccc3oc(-c4cn5ccccc5n4)cc(=O)c3c2)CCN1 [Cpd 16, 2-(imidazo[1,2-a]pyridin-2-yl)-6-[(3R)-3-methylpiperazin-1-yl]-4H-chromen-4-one] | 1 to 3 | 210 to 215 | > 1.65 | 1 to 3
7 | COc1cc(F)c(-c2cc(=O)c3cc(N4CCN[C@H](C)C4)ccc3o2)cc1OC [Cpd 48, 2-(2-fluoro-4,5-dimethoxyphenyl)-6-[(3R)-3-methylpiperazin-1-yl]-4H-chromen-4-one] | 1 to 3 | 180 to 182 | 1.5 to 1.65 | 1 to 3
8 | COc1cc(F)c(-c2cc(=O)c3cc(N4C[C@@H](C)N[C@@H](C)C4)ccc3o2)cc1OC [Cpd 47, 6-[(3R,5S)-3,5-dimethylpiperazin-1-yl]-2-(2-fluoro-4,5-dimethoxyphenyl)-4H-chromen-4-one] | 1 to 3 | 164 to 166 | 1.5 to 1.65 | 1 to 3
9 | COc1ccc(-c2cc(=O)c3cc(N4C[C@@H](C)N[C@@H](C)C4)ccc3o2)cc1OC [Cpd 24, 2-(3,4-dimethoxyphenyl)-6-[(3R,5S)-3,5-dimethylpiperazin-1-yl]-4H-chromen-4-one] | 0.3 to 1 | 206 to 208 | > 1.65 | 1 to 3
10 | C[C@H]1CN(c2ccc3oc(-c4cccc(F)c4)cc(=O)c3c2)CCN1 [Cpd 77, 2-(3-fluorophenyl)-6-[(3S)-3-methylpiperazin-1-yl]-4H-chromen-4-one] | 0.1 to 0.3 | 170 to 172 | 1.5 to 1.65 | 0.3 to 1
11 | O=c1cc(-c2nc3ccccc3s2)oc2ccc(N3CCNCC3)cc12 [Cpd 32, 2-(1,3-benzothiazol-2-yl)-6-(piperazin-1-yl)-4H-chromen-4-one] | 1 to 3 | 250 to 254 | 1.2 to 1.35 | 
12 | C[C@@H]1CN(c2ccc3oc(-c4ccccn4)cc(=O)c3c2)C[C@H](C)N1 [Cpd 13, 6-[(3R,5S)-3,5-dimethylpiperazin-1-yl]-2-(pyridin-2-yl)-4H-chromen-4-one] | 1 to 3 | 166 to 168 | 1.35 to 1.5 | 
13 | O=c1cc(-c2cccc(C(F)(F)F)c2)oc2ccc(N3CCNCC3)cc12 [Cpd 67, 6-(piperazin-1-yl)-2-[3-(trifluoromethyl)phenyl]-4H-chromen-4-one] | 0.1 to 0.3 | 174 to 176 | 1.5 to 1.65 | 0.3 to 1
14 | COc1ccc(-c2cc(=O)c3cc(N4C[C@@H](C)N[C@@H](C)C4)ccc3o2)cc1C [Cpd 53, 6-[(3R,5S)-3,5-dimethylpiperazin-1-yl]-2-(4-methoxy-3-methylphenyl)-4H-chromen-4-one] | 0.3 to 1 | 186 to 188 | 1.2 to 1.35 | 
15 | C[C@@H]1CN(c2ccc3oc(-c4ccccn4)cc(=O)c3c2)CCN1 [Cpd 15, 6-[(3R)-3-methylpiperazin-1-yl]-2-(pyridin-2-yl)-4H-chromen-4-one] | 1 to 3 | 140 to 142 | 1.5 to 1.65 | 3 to 10
16 | Cc1ccn2cc(-c3cc(=O)c4cc(N5CCN[C@H](C)C5)ccc4o3)nc2c1 [Cpd 29, 2-(7-methylimidazo[1,2-a]pyridin-2-yl)-6-[(3R)-3-methylpiperazin-1-yl]-4H-chromen-4-one] | 3 to 30 | 150 to 155 | 1.35 to 1.5 | 3 to 10
17 | COc1ccc(-c2cc(=O)c3cc(N4CCN[C@@H](C)C4)ccc3o2)cc1C(F)(F)F [Cpd 71, 2-[4-methoxy-3-(trifluoromethyl)phenyl]-6-[(3S)-3-methylpiperazin-1-yl]-4H-chromen-4-one] | 0.1 to 0.3 | 182 to 184 | 1.35 to 1.5 | 3 to 10
18 | CCN1CCN(c2ccc3oc(-c4ccc(OC)c(OC)c4)cc(=O)c3c2)CC1 [Cpd 22, 2-(3,4-dimethoxyphenyl)-6-(4-ethylpiperazin-1-yl)-4H-chromen-4-one] | 0.3 to 1 | 188 to 190 | > 1.65 | 1 to 3
19 | COc1ccc(-c2cc(=O)c3cc(N4CCNCC4)ccc3o2)cc1OC(F)(F)F [Cpd 68, 2-[4-methoxy-3-(trifluoromethoxy)phenyl]-6-(piperazin-1-yl)-4H-chromen-4-one] | 0.3 to 1 | 104 to 106 | ≤ 1.2 | 
20 | C[C@H]1CN(c2ccc3oc(-c4nc5ccccc5s4)cc(=O)c3c2)CCN1 [Cpd 36, 2-(1,3-benzothiazol-2-yl)-6-[(3S)-3-methylpiperazin-1-yl]-4H-chromen-4-one] | 0.3 to 1 | 140 to 142 | 1.5 to 1.65 | 1 to 3
21 | COc1ccc(-c2cc(=O)c3cc(N4CCNC(C)(C)C4)ccc3o2)cc1OC [Cpd 27, 2-(3,4-dimethoxyphenyl)-6-(3,3-dimethylpiperazin-1-yl)-4H-chromen-4-one] | 0.3 to 1 | 108 to 110 | > 1.65 | 1 to 3
22 | COc1ccc(-c2cc(=O)c3cc(N4CCN[C@H](C)C4)ccc3o2)cc1F [Cpd 40, 2-(3-fluoro-4-methoxyphenyl)-6-[(3R)-3-methylpiperazin-1-yl]-4H-chromen-4-one] | 0.1 to 0.3 | 110 to 112 | 1.35 to 1.5 | 1 to 3
23 | COc1ccc(-c2cc(=O)c3cc(N4CCNCC4)ccc3o2)cc1C [Cpd 51, 2-(4-methoxy-3-methylphenyl)-6-(piperazin-1-yl)-4H-chromen-4-one] | 0.3 to 1 | 98 to 100 | 1.35 to 1.5 | 
24 | COc1ccc(-c2cc(=O)c3cc(N4C[C@@H](C)N[C@@H](C)C4)ccc3o2)cc1F [Cpd 39, 6-[(3R,5S)-3,5-dimethylpiperazin-1-yl]-2-(3-fluoro-4-methoxyphenyl)-4H-chromen-4-one] | 0.1 to 0.3 | 180 to 182 | 1.5 to 1.65 | 3 to 10
25 | COc1ccc(-c2cc(=O)c3cc(N4CCN[C@@H](C)C4)ccc3o2)cn1 [Cpd 56, 2-(6-methoxypyridin-3-yl)-6-[(3S)-3-methylpiperazin-1-yl]-4H-chromen-4-one] | 0.3 to 1 | 196 to 200 | 1.35 to 1.5 | 
26 | Cc1csc(-c2cc(=O)c3cc(N4CCNCC4)ccc3o2)n1 [Cpd 76, 2-(4-methyl-1,3-thiazol-2-yl)-6-(piperazin-1-yl)-4H-chromen-4-one] | 0.3 to 1 | 179 to 182 | 1.5 to 1.65 | 1 to 3
27 | COc1ccc(-c2cc(=O)c3cc(N4CCNCC4)ccc3o2)cc1F [Cpd 37, 2-(3-fluoro-4-methoxyphenyl)-6-(piperazin-1-yl)-4H-chromen-4-one] | 0.1 to 0.3 | 178 to 180 | 1.35 to 1.5 | 1 to 3
28 | Cc1ccn2cc(-c3cc(=O)c4cc(N5CCNCC5)ccc4o3)nc2c1 [Cpd 28, 2-(7-methylimidazo[1,2-a]pyridin-2-yl)-6-(piperazin-1-yl)-4H-chromen-4-one] | 1 to 3 | 228 to 232 | > 1.65 | 3 to 10
29 | O=c1cc(-c2cncc(F)c2)oc2ccc(N3CCNCC3)cc12 [Cpd 74, 2-(5-fluoropyridin-3-yl)-6-(piperazin-1-yl)-4H-chromen-4-one] | 0.3 to 1 | 182 to 184 | 1.5 to 1.65 | 1 to 3
